Assay results published in patent publication US11629171B2, “Beta-hairpin peptidomimetics” (POLYPHOR AG, priority 2017, dated 2023).
≈ marks a conversion by molar mass, not a printed value. Where a SMILES comes first, the peptide text is derived from it. Bridges are numbered along the chain shown (N, C = ends). Roman numbers before positions name the chains, in order. [ ]: non-standard residue; d: D form. The star is where a group is joined. aThr = C[C@H](O)[C@H](N)C(=O)O; Tle = CC(C)(C)[C@H](N)C(=O)O; Hiv = CC(C)[C@H](O)C(=O)O; Isovaleryl = CC(C)CC(=O)*; dDab = NCC[C@@H](N)C(=O)O; hSer = N[C@@H](CCO)C(=O)O; NHCH(CH2OH)2 = OCC(CO)N*; Nle = CCCC[C@H](N)C(=O)O; Dab = NCC[C@H](N)C(=O)O; Dap = NC[C@H](N)C(=O)O; NHCH2CH2OH = OCCN*

Assays:
Type in all cases: cell-based
[1] = system: human red blood cells (hRBC); test: Hemolysis; details: red cells of human, 1 h, 200
Summary of the method: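 hRBC washed 4× in PBS; 200 μg/mL peptide + 20% (v/v) hRBC, 1 h, 37° C, 300 rpm. Spin, supernatant ~7.5-fold diluted, OD540 blank corrected. % hemolysis = OD540 peptide / OD540 Triton X-100 × 100.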

[2] = system: Klebsiella pneumoniae 968733; details: 968733
Summary of the method: (§1)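 MIC in μg/mL, read as no visible growth after 18-20 hours at 35° C. Peptides were serially diluted two-fold in MH-II broth plus P-80 (0.002% final, v/v) and inoculated at about 10^6 CFU/mL following the CLSI broth microdilution standard.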

Escherichia coli 926415 = details: 926415
Summary of the method: as §1

[3] = system: Pseudomonas aeruginosa ATCC 27853; details: ATCC 27853
Summary of the method: as §1

[4] = system: Acinetobacter baumannii 872842; details: 872842
Summary of the method: as §1

[5] = system: Enterobacter cloacae 848840; details: 848840
Summary of the method: as §1

[6] = system: Klebsiella pneumoniae SSI #3010; details: SSI #3010
Summary of the method: as §1

[7] = system: Acinetobacter baumannii DSM 30008; details: DSM 30008
Summary of the method: as §1

[8] = system: Escherichia coli ATCC 25922; details: ATCC 25922
Summary of the method: as §1

Structure (SMILES)	Hemolysis at 200 μg/mL [1] [%]	MIC [2] [µg/mL]	MIC (Escherichia coli 926415) [µg/mL]	Pseudomonas aeruginosa ATCC 27853 MIC [3] [µg/mL]	MIC [4] [µg/mL]	MIC [5] [µg/mL]	Klebsiella pneumoniae SSI #3010 MIC [6] [µg/mL]	Acinetobacter baumannii DSM 30008 MIC [7] [µg/mL]	Escherichia coli ATCC 25922 MIC [8] [µg/mL]	MIC [3] [µg/mL]	MIC [6] [µg/mL]	MIC [7] [µg/mL]	MIC [8] [µg/mL]
CCCC[C@@H]1NC(=O)[C@H](CO)NC(=O)[C@H](Cc2c[nH]c3ccccc23)NC(=O)[C@H](CO)NC(=O)[C@@H](CCN)NC(=O)[C@H](CCC(=O)N[C@@H](CCN)C(=O)N[C@H](C(=O)N[C@@H](CN)C(=O)N[C@H]2CCNC(=O)[C@H]([C@@H](C)O)NC(=O)[C@H](CCN)NC(=O)[C@H](CCN)NC(=O)[C@H](CC(C)C)NC(=O)[C@@H](CC(C)C)NC(=O)[C@H](CCN)NC2=O)[C@@H](C)O)NC(=O)[C@H](CCN)NC(=O)[C@H](Cc2ccc(O)cc2)NC(=O)[C@@H](NC(=O)[C@@H](NC(C)=O)C(C)C)CCNC(=O)C[C@@H](C(=O)N[C@@H](CO)C(N)=O)NC1=O [Ex. 325] (I: Ac-V[Dab]Y[Dab]E[dDab]SWS[Nle]DS-NH2 / II: [Dab]T[Dap][Dab][Dab][dL]L[Dab][Dab]T; lactam I:2-I:11, II:4-II:C; amide I:5-II:N)	<1	0.5 (≈ 0.208 µM)	0.125 (≈ 0.052 µM)	0.125	0.125 (≈ 0.052 µM)	0.0625 (≈ 0.026 µM)	0.0625	0.0625	0.0625				
CC(=O)N[C@H](C(=O)N[C@H]1CSSC[C@@H](C(=O)N[C@@H](CO)C(N)=O)NC(=O)[C@H](C(C)C)NC(=O)[C@H](CCC(=O)O)NC(=O)[C@H](Cc2c[nH]c3ccccc23)NC(=O)[C@H](CCO)NC(=O)[C@@H](CCN)NC(=O)[C@H](CCC(=O)N[C@@H](CCN)C(=O)N[C@H](C(=O)N[C@@H](CN)C(=O)N[C@H]2CCNC(=O)[C@H]([C@@H](C)O)NC(=O)[C@H](CCN)NC(=O)[C@H](CCN)NC(=O)[C@H](CC(C)C)NC(=O)[C@@H](CC(C)C)NC(=O)[C@H](CCN)NC2=O)[C@@H](C)O)NC(=O)[C@H](CCN)NC(=O)[C@H](Cc2ccc(O)cc2)NC1=O)C(C)C [Ex. 155] (I: Ac-VCY[Dab]E[dDab][hSer]WEVCS-NH2 / II: [Dab]T[Dap][Dab][Dab][dL]L[Dab][Dab]T; disulfide I:2-I:11; amide I:5-II:N; lactam II:4-II:C)	1	0.5 (≈ 0.204 µM)	0.5 (≈ 0.204 µM)		0.125 (≈ 0.0509 µM)	0.125 (≈ 0.0509 µM)				0.125 (≈ 0.0509 µM)	0.125 (≈ 0.0509 µM)	0.0625 (≈ 0.0255 µM)	0.0625 (≈ 0.0255 µM)
CC(C)CC(=O)N[C@H]1CSSC[C@@H](C(=O)NC(CO)CO)NC(=O)[C@H](C(C)(C)C)NC(=O)[C@H](CO)NC(=O)[C@H](Cc2c[nH]c3ccccc23)NC(=O)[C@H]([C@@H](C)O)NC(=O)[C@@H](CCN)NC(=O)[C@H](CCC(=O)N[C@@H](CCN)C(=O)N[C@H](C(=O)N[C@@H](CCN)C(=O)N[C@H]2CCNC(=O)[C@H]([C@@H](C)O)NC(=O)[C@H](CCN)NC(=O)[C@H](CCN)NC(=O)[C@H](CC(C)C)NC(=O)[C@@H](CC(C)C)NC(=O)[C@H](CCN)NC2=O)[C@@H](C)O)NC(=O)[C@H](CN)NC(=O)[C@H](Cc2ccc(O)cc2)NC1=O [Example 5] (I: Isovaleryl-CY[Dap]E[dDab]TWS[Tle]C-{NHCH(CH2OH)2} / II: [Dab]T[Dab][Dab][Dab][dL]L[Dab][Dab]T; disulfide I:1-I:10; amide I:4-II:N; lactam II:4-II:C)	<1	0.25 (≈ 0.106 µM)	0.125 (≈ 0.053 µM)		0.125 (≈ 0.053 µM)	0.125 (≈ 0.053 µM)				0.125 (≈ 0.053 µM)	0.125 (≈ 0.053 µM)	0.0625 (≈ 0.0265 µM)	0.0625 (≈ 0.0265 µM)
CC(=O)N[C@H](C(=O)N[C@H]1CCNC(=O)C[C@@H](C(=O)N[C@@H](CO)C(N)=O)NC(=O)[C@H](C(C)(C)C)NC(=O)[C@H](CO)NC(=O)[C@H](Cc2c[nH]c3ccccc23)NC(=O)[C@H](CO)NC(=O)[C@@H](CCN)NC(=O)[C@H](CCC(=O)N[C@@H](CCN)C(=O)N[C@H](C(=O)N[C@@H](CN)C(=O)N[C@H]2CCNC(=O)[C@H]([C@@H](C)O)NC(=O)[C@H](CCN)NC(=O)[C@H](CCN)NC(=O)[C@H](CC(C)C)NC(=O)[C@@H](CC(C)C)NC(=O)[C@H](CCN)NC2=O)[C@@H](C)O)NC(=O)[C@H](CN)NC(=O)[C@H](Cc2ccc(O)cc2)NC1=O)C(C)C [Ex. 148] (I: Ac-V[Dab]Y[Dap]E[dDab]SWS[Tle]DS-NH2 / II: [Dab]T[Dap][Dab][Dab][dL]L[Dab][Dab]T; lactam I:2-I:11, II:4-II:C; amide I:5-II:N)	<1	0.25 (≈ 0.105 µM)	0.125 (≈ 0.0523 µM)		0.0625 (≈ 0.0261 µM)	0.0625 (≈ 0.0261 µM)				0.125 (≈ 0.0523 µM)	0.0625 (≈ 0.0261 µM)	0.03125 (≈ 0.0131 µM)	0.03125 (≈ 0.0131 µM)
CC(=O)N[C@H](C(=O)N[C@H]1CSSC[C@@H](C(=O)N[C@H](C(N)=O)[C@@H](C)O)NC(=O)[C@H](C(C)(C)C)NC(=O)[C@H](CO)NC(=O)[C@H](Cc2c[nH]c3ccccc23)NC(=O)[C@H](CO)NC(=O)[C@@H](CCN)NC(=O)[C@H](CCC(=O)N[C@@H](CCN)C(=O)N[C@H](C(=O)N[C@@H](CN)C(=O)N[C@H]2CCNC(=O)[C@H]([C@@H](C)O)NC(=O)[C@H](CCN)NC(=O)[C@H](CCN)NC(=O)[C@H]([C@H](C)O)NC(=O)[C@@H](CC(C)C)NC(=O)[C@H](CCN)NC2=O)[C@@H](C)O)NC(=O)[C@H](CCN)NC(=O)[C@H](Cc2ccc(O)cc2)NC1=O)C(C)C [Ex. 140] (I: Ac-VCY[Dab]E[dDab]SWS[Tle]CT-NH2 / II: [Dab]T[Dap][Dab][Dab][dL][aThr][Dab][Dab]T; disulfide I:2-I:11; amide I:5-II:N; lactam II:4-II:C)	<1	0.5 (≈ 0.207 µM)	0.25 (≈ 0.104 µM)		0.5 (≈ 0.207 µM)	0.25 (≈ 0.104 µM)				0.25 (≈ 0.104 µM)	0.125 (≈ 0.0518 µM)	0.125 (≈ 0.0518 µM)	0.125 (≈ 0.0518 µM)
CC(C)C[C@@H]1NC(=O)[C@@H](CC(C)C)NC(=O)[C@H](CCN)NC(=O)[C@@H](NC(=O)[C@H](CCN)NC(=O)[C@@H](NC(=O)[C@H](CCN)NC(=O)CC[C@@H]2NC(=O)[C@H](CCN)NC(=O)[C@H](Cc3ccc(O)cc3)NC(=O)[C@@H](NC(=O)[C@@H](O)C(C)C)CSSC[C@@H](C(=O)NCCO)NC(=O)[C@H](C(C)(C)C)NC(=O)[C@H](CO)NC(=O)[C@H](Cc3c[nH]c4ccccc34)NC(=O)[C@H](CCO)NC(=O)[C@@H](CCN)NC2=O)[C@@H](C)O)CCNC(=O)[C@H]([C@@H](C)O)NC(=O)[C@H](CCN)NC(=O)[C@H](CCN)NC1=O [Ex. 72] (I: H-[Hiv]CY[Dab]E[dDab][hSer]WS[Tle]C-NHCH2CH2OH / II: [Dab]T[Dab][Dab][Dab][dL]L[Dab][Dab]T; disulfide I:2-I:11; amide I:5-II:N; lactam II:4-II:C)	<1	0.125 (≈ 0.053 µM)	0.125 (≈ 0.053 µM)		0.0625 (≈ 0.0265 µM)	0.25 (≈ 0.106 µM)				0.125 (≈ 0.053 µM)	0.125 (≈ 0.053 µM)	0.0625 (≈ 0.0265 µM)	0.0625 (≈ 0.0265 µM)
CC(=O)N[C@@H](CC(C)C)C(=O)N[C@H]1CSSC[C@@H](C(=O)N[C@@H](CO)C(N)=O)NC(=O)[C@H](C(C)C)NC(=O)[C@H](CO)NC(=O)[C@H](Cc2c[nH]c3ccccc23)NC(=O)[C@H](CO)NC(=O)[C@@H](CCN)NC(=O)[C@H](CCC(=O)N[C@@H](CCN)C(=O)N[C@H](C(=O)N[C@@H](CN)C(=O)N[C@H]2CCNC(=O)[C@H]([C@@H](C)O)NC(=O)[C@H](CCN)NC(=O)[C@H](CCN)NC(=O)[C@H](CC(C)C)NC(=O)[C@@H](CC(C)C)NC(=O)[C@H](CCN)NC2=O)[C@@H](C)O)NC(=O)[C@H](CCN)NC(=O)[C@H](Cc2ccc(O)cc2)NC1=O [Ex. 314] (I: Ac-LCY[Dab]E[dDab]SWSVCS-NH2 / II: [Dab]T[Dap][Dab][Dab][dL]L[Dab][Dab]T; disulfide I:2-I:11; amide I:5-II:N; lactam II:4-II:C)	2	0.125 (≈ 0.0518 µM)	0.0625 (≈ 0.0259 µM)	0.25	0.0625 (≈ 0.0259 µM)	0.125 (≈ 0.0518 µM)	0.125	0.01562	0.01562				
